According to patent US20100069450A1, “SALT OF 3-BENZYL-2-METHYL-2,3,3A,4,5,6,7, 7A- OCTAHYDROBENZO[D]ISOXAZOL-4-ONE” (ABIOGEN PHARMA S.P.A, priority 2006, published 2010):
Where a name gives a salt, the structure may show the parent alone. Read-outs that look alike come from different tables or passages of the source.

Key:
[1] = test system: female CD-1 mice; assay: Acute oral toxicity; type: in vivo
Experimental: Acute oral toxicity of salts hydrochloride and fumarate of BTG-1640 was evaluated.
The two salts were dispersed in an aqueous suspension, thus obtaining two formulations, each one orally administered through oesophageous gavage at dose of 2000 mg/kg bw (expressed as free base of BTG 1640) to one of two groups comprising three female CD-1 mice per group.
The observation lasted 14 days.

[2] = Stability test of BTG 1640 salts: purity under preservation conditions; type: physicochemical
Experimental: Samples of 100 mg each of BTG 1640 hydrochloride were subjected to the following preservation conditions:
The purities were then analyzed periodically, initially every three months, in order to underline possible variations.
Samples of 100 mg each of BTG 1640 fumarate prepared according to example 1C were subjected to the following preservation conditions:
Quarterly and in an overall period of nine months its purity was then analyzed in order to underline possible variations. The results in the following Table 3 were obtained:
As comparison other salts of BTG 1640 were prepared, and exactly: • BTG 1640 methanesulphonate • BTG 1640 maleate • BTG 1640 succinate following the procedure indicated in example 1 and substituting methanesolphonic, maleic and succinic acids for fumaric acid.
The stabilities were then evaluated by subjecting samples of 100 mg of each salt to the following analogous preservation conditions:
Quarterly and in an overall period of nine months their purity was then analyzed in order to underline possible variations.
The obtained results, together with those obtained in Example 2 for hydrochloride, in Example 3 for fumarate in order to make easier the comparison, were in Table 5 and represented in FIGS. 5-8.

[3] = Absorption kinetic: plasma concentration of BTG 1640 after oral gavage; type: in vivo, rats Sprague Dawley; settings: rat, in vivo, po, 10 mg/kg
Experimental: Absorption extent and rate of molecule BTG 1640 in its forms of fumarate and hydrochloride salts were evaluated.
With this intent, the two salts were dispersed in an aqueous suspension of arabic gum at 5% thus obtaining two formulations, each one orally administered through oesophageous gavage at dose of 10 mg/kg (expressed as free base of BTG 1640) to five rats Sprague Dawley.
Plasma concentration of molecule BTG 1640 was determined at different time points.

[4] = Stability test of BTG 1640 salts: evaluation of total impurities; type: physicochemical
Experimental: Contemporaneously, the impurity analysis in the conditions a)-d) of T/% RH were carried out.
As a confirmation of such evidence, a test for the evaluation of the impurity percentage of the sample subjected to the same conditions a)-d) of T/% RH was parallely carried out. The experimental values in Table 4 were obtained.

[5] = female CD-1 mice, oral gavage 2000 mg/kg bw
[6] = T = 25° C., humidity 60% RH, time 0
[7] = T = 25° C., humidity 60% RH, time 3 (months)
[8] = T = 25° C., humidity 60% RH, time 6 (months)
[9] = T = 25° C., humidity 60% RH, time 9 (months)
[10] = T = 30° C., humidity 65% RH, time 0
[11] = T = 30° C., humidity 65% RH, time 3 (months)
[12] = T = 30° C., humidity 65% RH, time 6 (months)
[13] = T = 30° C., humidity 65% RH, time 9 (months)
[14] = T = 40° C., humidity 75% RH, time 0
[15] = T = 40° C., humidity 75% RH, time 3 (months)
[16] = T = 40° C., humidity 75% RH, time 6 (months)

With `CN1OC2CCCC(=O)C2C1Cc1ccccc1` [BTG 1640 fumarate, fumarate salt of rel-(3R,3aS,7aS)-3-benzyl-2-methyl-2,3,3a,4,5,6,7,7a-octahydrobenzo[d]isoxazol-4-one] the Clinical signs [1, 5] was “quickly reversible neurological signs”, the “Histopathological examination of kidneys” value [1, 5] was “only a mild dilatation of convoluted tubules” and the “Toxicity compared with hydrochloride” value ([1]; female mice, 2000 mg/kg bw) was “strongly less toxic”. The “Stability compared with BTG 1640 hydrochloride” value [2] was “higher stability”, the Purity % ([2]; T = 5° C., time 0) was 99.5% and the Purity % ([2]; T = 5° C., time 3 (months)) was 100.0%. The Purity % ([2]; T = 5° C., time 6 (months)) was 100.0%, the Purity % ([2]; T = 5° C., time 9 (months)) was 99.9% and the Purity % [2, 6] was 99.5%. It also gave a Purity % [2, 7] of 100.0%, a Purity % [2, 8] of 100.0% and a Purity % [2, 9] of 99.9%. It also gave a Purity % [2, 10] of 99.5%, a Purity % [2, 11] of 100.0% and a Purity % [2, 12] of 100.0%. For the same compound, the Purity % [2, 13] was 99.9%, the Purity % [2, 14] was 99.5% and the Purity % [2, 15] was 100.0%. It also gave a Purity % [2, 16] of 100.0%, a concentration at 2 min ([3]; Sprague Dawley) of 1070 ng/mL and a concentration at 5 min ([3]; Sprague Dawley) of 2350 ng/mL. It also gave a concentration at 30 min ([3]; Sprague Dawley) of 838 ng/mL, a concentration at 90 min ([3]; Sprague Dawley) of 0 ng/mL and a concentration at 300 min ([3]; Sprague Dawley) of 0 ng/mL. The “Plasma concentration of free BTG 1640 with respect to hydrochloride” value [3] was “not significantly higher”, the “availability of the active principle in the circulation” value [3] was “more favourable” and the “% impurities” value ([4]; T = 5° C., time 0) was 0.49%. The “% impurities” value ([4]; T = 5° C., time 3 (months)) was 0.10%, the “% impurities” value ([4]; T = 5° C., time 6 (months)) was 0.10% and the “% impurities” value ([4]; T = 5° C., time 9 (months)) was 0.10%. For the same compound, the “% impurities” value [4, 6] was 0.49%, the “% impurities” value [4, 7] was 0.10% and the “% impurities” value [4, 8] was 0.10%. For the same compound, the “% impurities” value [4, 9] was 0.10%, the “% impurities” value [4, 10] was 0.49% and the “% impurities” value [4, 11] was 0.10%. The “% impurities” value [4, 12] was 0.10%, the “% impurities” value [4, 13] was 0.10% and the “% impurities” value [4, 14] was 0.49%. For the same compound, the “% impurities” value [4, 15] was 0.10%, the “% impurities” value [4, 16] was 0.10% and the “Impurities (in words)” value ([4]; condition d): 40° C./75% RH) was “invariable impurity profile”.
`CN1OC2CCCC(=O)C2C1Cc1ccccc1.O=C(O)/C=C\C(=O)O` (stereo not shown) [BTG 1640 maleate] showed a Purity % ([2]; T = 5° C., time 0) of 99.8%, a Purity % ([2]; T = 5° C., time 3 (months)) of 100.0% and a Purity % ([2]; T = 5° C., time 6 (months)) of 100.0%. It also gave a Purity % ([2]; T = 5° C., time 9 (months)) of 99.8%, a Purity % [2, 6] of 99.8% and a Purity % [2, 7] of 99.8%. The Purity % [2, 8] was 100.0%, the Purity % [2, 9] was 99.7% and the Purity % [2, 10] was 99.8%. The Purity % [2, 11] was 99.5%, the Purity % [2, 12] was 98.9% and the Purity % [2, 13] was 95.9%. For the same compound, the Purity % [2, 14] was 99.8%, the Purity % [2, 15] was 24.4% and the “Degradation (in words)” value ([2]; condition c) 30° C./65% RH, at sixth month) was “considerable degradation”. The “Stability (in words)” value ([2]; condition d): 40° C. and 75% RH) was “degrades in unacceptable way”, the “Stability profile (in words)” value ([2]; conditions a) and b)) was “acceptable profile” and the “Stability compared with BTG 1640 hydrochloride” value ([2]; conditions a)-d)) was “even worse”. The “% impurities” value ([4]; T = 5° C., time 0) was 0.23%, the “% impurities” value ([4]; T = 5° C., time 3 (months)) was 0.10% and the “% impurities” value ([4]; T = 5° C., time 6 (months)) was 0.10%. For the same compound, the “% impurities” value ([4]; T = 5° C., time 9 (months)) was 0.19%, the “% impurities” value [4, 6] was 0.23% and the “% impurities” value [4, 7] was 0.22%. For the same compound, the “% impurities” value [4, 8] was 0.10%, the “% impurities” value [4, 9] was 0.29% and the “% impurities” value [4, 10] was 0.23%. The “% impurities” value [4, 11] was 0.49%, the “% impurities” value [4, 12] was 1.10% and the “% impurities” value [4, 13] was 4.20%. The “% impurities” value [4, 14] was 0.23% and the “% impurities” value [4, 15] was 75.60%.
For `CN1OC2CCCC(=O)C2C1Cc1ccccc1.CS(=O)(=O)O` (stereo not shown) [BTG 1640 methanesulphonate], the Purity % ([2]; T = 5° C., time 0) was 99.6%, the Purity % ([2]; T = 5° C., time 3 (months)) was 99.5% and the Purity % ([2]; T = 5° C., time 6 (months)) was 99.3%. For the same compound, the Purity % ([2]; T = 5° C., time 9 (months)) was 99.1%, the Purity % [2, 6] was 99.6% and the Purity % [2, 7] was 98.2%. For the same compound, the Purity % [2, 8] was 97.1%, the Purity % [2, 9] was 95.0% and the Purity % [2, 10] was 99.6%. The Purity % [2, 11] was 96.0%, the Purity % [2, 12] was 86.8% and the Purity % [2, 13] was 74.2%. It also gave a Purity % [2, 14] of 99.6%, a Purity % [2, 15] of 81.5% and a Purity % [2, 16] of 5.7%. For the same compound, the “Stability compared with BTG 1640 hydrochloride” value ([2]; conditions a)-d)) was “even worse”, the “Degradation (in words)” value ([2]; conditions b)-d)) was “begins to degrade already after three months” and the “% impurities” value ([4]; T = 5° C., time 0) was 0.42%. For the same compound, the “% impurities” value ([4]; T = 5° C., time 3 (months)) was 0.55%, the “% impurities” value ([4]; T = 5° C., time 6 (months)) was 0.74% and the “% impurities” value ([4]; T = 5° C., time 9 (months)) was 0.91%. The “% impurities” value [4, 6] was 0.42%, the “% impurities” value [4, 7] was 1.80% and the “% impurities” value [4, 8] was 2.90%. For the same compound, the “% impurities” value [4, 9] was 5.00%, the “% impurities” value [4, 10] was 0.42% and the “% impurities” value [4, 11] was 4.00%. For the same compound, the “% impurities” value [4, 12] was 13.20%, the “% impurities” value [4, 13] was 25.80% and the “% impurities” value [4, 14] was 0.42%. For the same compound, the “% impurities” value [4, 15] was 18.50% and the “% impurities” value [4, 16] was 94.30%.
`CN1OC2CCCC(=O)C2C1Cc1ccccc1.O=C(O)CCC(=O)O` (stereo not shown) [BTG 1640 succinate] gave a Purity % ([2]; T = 5° C., time 0) of 99.2%, a Purity % ([2]; T = 5° C., time 3 (months)) of 98.0% and a Purity % ([2]; T = 5° C., time 6 (months)) of 98.1%. It also gave a Purity % ([2]; T = 5° C., time 9 (months)) of 96.8%, a Purity % [2, 6] of 99.2% and a Purity % [2, 7] of 92.7%. It also gave a Purity % [2, 8] of 87.0%, a Purity % [2, 9] of 90.5% and a Purity % [2, 10] of 99.2%. It also gave a Purity % [2, 11] of 85.4%, a Purity % [2, 12] of 71.5% and a Purity % [2, 13] of 66.8%. For the same compound, the Purity % [2, 14] was 99.2%, the Purity % [2, 15] was 16.5% and the “Stability compared with BTG 1640 hydrochloride” value ([2]; conditions a)-d)) was “even worse”. The “Degradation (in words)” value ([2]; conditions a)-d), from the third month) was “shows degradation at all observation conditions”, the “% impurities” value ([4]; T = 5° C., time 0) was 0.77% and the “% impurities” value ([4]; T = 5° C., time 3 (months)) was 2.00%. For the same compound, the “% impurities” value ([4]; T = 5° C., time 6 (months)) was 1.90%, the “% impurities” value ([4]; T = 5° C., time 9 (months)) was 3.20% and the “% impurities” value [4, 6] was 0.77%. The “% impurities” value [4, 7] was 7.30%, the “% impurities” value [4, 8] was 13.00% and the “% impurities” value [4, 9] was 9.50%. The “% impurities” value [4, 10] was 0.77%, the “% impurities” value [4, 11] was 14.60% and the “% impurities” value [4, 12] was 28.50%. The “% impurities” value [4, 13] was 33.30%, the “% impurities” value [4, 14] was 0.77% and the “% impurities” value [4, 15] was 83.50%.
